Assays:
MDA-MB-231 = test: MTT cell viability assay, MDA-MB-231 cells; type: cell-based, human; conditions: Homo sapiens, 48 h drug exposure
Procedure: MDA-MB-231 [American Type Culture Collection (ATCC) reference number HTB-26]. This a human breast cancer cell line derived from a metastatic site from a person.
(§1) Cell viability was assayed by measuring the mitochondrial reduction of the tetrazolium salt 3-(4,5-methyltiazol-2yl)-2,5diphenyl-tetrazolium bromide] (MTT) (Applichen; A2231,0010) [Mosmann T. J Immunol Methods. 1983 16;65(1-2):55-63 (ref. 36); Chuan Y-C et al 2010. Oncogene. 29 (10), 1531-1542 (ref. 37)]. Cells were seeded in 96-well plates in medium (either RPMI, DMEM or McCoys depending on the recommendations from the ATCC) supplemented with 10% FBS (Lonza Cat. N°: 14-502F), 2mM L-Glut (Lonza Cat. N°: BE17-605E) and 100U/ml PEST (Lonza Cat. N°: DE17-605E) at a cell density of 1000-5000 cells/well (96 well plate). Cells were seeded at a density according to their exponential growth phase (normally 1000 to 5000/well). The cells were cultured at 37 °C in the dark in air containing 5% CO2. After 24h either vehicle (0.05% DMSO) or drug were added to culture medium at the indicated concentrations (10 to 0,01microM). After another 48 h, MTT (0.3 mg/ml) was added to cells, followed by incubation for 2-4h at 37 °C in the dark. The medium was then removed and the precipitated formazan was solubilized by the addition of DMSO (200 µL).
(§2) The optical density was measured at 595 nm with the iMark Microplate Reader (BioRad, USA). Data was expressed as percent growth above the level in controls and the results in figures were plotted as means ± SEM of each test point from 3 replicates.
(§3) Statistical analysis. The concentration of drug that provokes 50% reduction of cell viability (IC50) was determined by using non-linear regression analysis and data were fitted to a log concentration vs normalized response curve in GraphPad software v5 (San Diego, CA).

MCF-7 = test: MTT cell viability assay, MCF-7 cells; type: cell-based; conditions: Homo sapiens, MCF7, 48 h drug exposure
Procedure: as §1, §2, §3

HEL 92.1.7 = test: MTT cell viability assay, HEL cells; type: cell-based; conditions: Homo sapiens, 48 h drug exposure
Procedure: HEL 92.1.7 [American Type Culture Collection (ATCC) reference number TIB-180]. This a human cancer cell line derived from the bone marrow of a person with erythroleukemia, which is a form of AML.
as §1, §2, §3

PANC-1 = test: MTT cell viability assay, PANC-1 cells; type: cell-based; conditions: Homo sapiens, 48 h drug exposure
Procedure: PANC-1 [American Type Culture Collection (ATCC) reference number CRL-1469]. This a human cancer cell line derived from the pancreas of a person.
as §1, §2, §3

K562 = test: MTT cell viability assay, K562 cells; type: cell-based; conditions: Homo sapiens, 48 h drug exposure
Procedure: K562 [American Type Culture Collection (ATCC) reference number CCL-243]. This a human cancer cell line derived from the bone marrow of a person with CML.
as §1, §2, §3

DU-145 = test: MTT cell viability assay, DU-145 cells; type: cell-based; conditions: Homo sapiens, 48 h drug exposure
Procedure: DU-145 [American Type Culture Collection (ATCC) reference number HTB-81]. This a human prostate cancer cell line derived from a metastatic site (brain) of a person.
as §1, §2, §3

SMILES | IC50 (MDA-MB-231) | IC50 (MCF-7) | IC50 (HEL 92.1.7) | IC50 (PANC-1) | IC50 (K562) | IC50 (DU-145)
COc1ccc(OC)c2c1C(=O)C1=C(C2=O)N(c2cccnc2)Cc2ccccc2O1 [Compound 85, 7,10-dimethoxy-12-(pyridin-3-yl)-12,13-dihydrobenzo[f]naphtho[2,3-b][1,4]oxazepine-6,11-dione] | 1.03 µM | 2.57 µM | 0.33 µM | 1.78 µM | 0.38 µM | 
CN(CCO)c1ccc(N2Cc3ccccc3OC3=C2C(=O)c2c(O)ccc(O)c2C3=O)cn1 [Compound 61] | 0.41 µM |  | 0.1 µM |  | 0.16 µM | 0.92 µM
CN(C)c1ccc(N2Cc3ccccc3OC3=C2C(=O)c2ccccc2C3=O)cn1 [Compound 98] | 2.17 µM | 3.54 µM |  | 2.94 µM |  | 4.7 µM
O=C1C2=C(C(=O)c3c(O)ccc(O)c31)N(c1ccccc1)Cc1ccccc1O2 [Compound 45, 7,10-dihydroxy-12-phenyl-12,13-dihydrobenzo[f]naphtho[2,3-b][1,4]oxazepine-6,11-dione] | 0.13 µM |  | 0.09 µM |  | 0.09 µM | 0.57 µM
CN(C)CCNc1ccc(N2Cc3ccccc3OC3=C2C(=O)c2cccc(O)c2C3=O)cn1 [Compound 105] | 0.71 µM | 1.99 µM |  | 0.69 µM |  | 1.51 µM
NC(=O)c1ccc(N2Cc3cc(F)ccc3OC3=C2C(=O)c2c(O)ccc(O)c2C3=O)cc1 [Compound 55] | 3.35 µM | 3.45 µM |  | 0.89 µM | 0.33 µM | 
COC(=O)CNC(=O)c1ccc(N2Cc3ccccc3OC3=C2C(=O)c2c(O)ccc(O)c2C3=O)cc1 [Compound 102, methyl (4-(7,10-dihydroxy-6,11-dioxo-6,11-dihydrobenzo[f]naphtho[2,3-b][1,4]oxazepin-12(13H)-yl)benzoyl)glycinate] | 0.17 µM |  |  |  | 0.42 µM | 1 µM
N#Cc1ccc(N2Cc3ccccc3OC3=C2C(=O)c2cccc(O)c2C3=O)cc1 [Compound 75] | 2.7 µM | 2.36 µM |  | 5.49 µM |  | 3.89 µM
COc1ccc(OC)c2c1C(=O)C1=C(C2=O)N(c2ccc(N3CCOCC3)nc2)Cc2ccccc2O1 [Compound 86] | 1.28 µM |  | 0.59 µM | 3.89 µM |  | 
NC(=O)c1cccc(N2Cc3cc(Cl)ccc3OC3=C2C(=O)c2c(O)ccc(O)c2C3=O)c1 [Compound 44] | 0.73 µM | 0.97 µM |  | 0.32 µM | 0.06 µM | 
O=C1C2=C(C(=O)c3ccccc31)N(c1ccccc1)Cc1ccccc1O2 [Compound 1, 12-phenyl-12,13-dihydrobenzo[f]naphtho[2,3-b][1,4]oxazepine-6,11-dione] | 1.59 µM |  | 0.45 µM |  | 0.98 µM | 
N#Cc1cccc(N2Cc3cc(Cl)ccc3OC3=C2C(=O)c2c(O)ccc(O)c2C3=O)c1 [Compound 43] | 0.81 µM | 1.3 µM |  | 0.74 µM | 0.76 µM | 
COc1cccc2c1OC1=C(C(=O)c3c(O)ccc(O)c3C1=O)N(c1ccc(C(N)=O)cc1)C2 [Compound 56] | 0.4 µM | 3.04 µM |  |  | 0.19 µM | 7.22 µM
O=C1C2=C(C(=O)c3ccccc31)N(c1ccc(N3CCOCC3)nc1)Cc1ccccc1O2 [Compound 99] | 2.09 µM | 2.28 µM |  | 2.61 µM |  | 4.3 µM
NS(=O)(=O)c1ccc(N2Cc3cc(F)ccc3OC3=C2C(=O)c2c(O)ccc(O)c2C3=O)cc1 [Compound 23] | 2.54 µM | 3.23 µM |  | 0.57 µM | 0.54 µM | 8.16 µM
NC(=O)c1ccc(N2Cc3ccccc3OC3=C2C(=O)c2ccccc2C3=O)cc1 [Compound 17, 4-(6,11-dioxo-6,11-dihydrobenzo[f]naphtho[2,3-b][1,4]oxazepin-12(13H)-yl)benzamide] |  | 5.91 µM |  |  | 0.65 µM | 5.77 µM
O=C1C2=C(C(=O)c3ccccc31)N(c1cccnc1)Cc1ccccc1O2 [Compound 4, 12-(pyridin-3-yl)-12,13-dihydrobenzo[f]naphtho[2,3-b][1,4]oxazepine-6,11-dione] | 1.52 µM | 5.12 µM |  | 4.36 µM | 0.98 µM | 8.9 µM

SMILES | IC50 (MDA-MB-231) | IC50 (MCF-7) | IC50 (HEL 92.1.7) | IC50 (PANC-1) | IC50 (K562) | IC50 (DU-145)
COc1ccc(O)c2c1C(=O)C1=C(C2=O)N(c2cccc(C#N)c2)Cc2ccccc2O1 [Compound 66] | 1.21 µM | 2.34 µM | 0.05 µM |  |  | 
NC(=O)c1ccc(N2Cc3ccccc3OC3=C2C(=O)c2c(O)ccc(O)c2C3=O)cc1 [Compound 10, 4-(7,10-dihydroxy-6,11-dioxo-6,11-dihydrobenzo[f]naphtho[2,3-b][1,4]oxazepin-12(13H)-yl)benzamide] | 0.63 µM | 1.85 µM |  | 0.36 µM | 0.09 µM | 6.18 µM
N#Cc1cccc(N2Cc3ccccc3OC3=C2C(=O)c2c(O)ccc(O)c2C3=O)c1 [Compound 9, 3-(7,10-dihydroxy-6,11-dioxo-6,11-dihydrobenzo[f]naphtho[2,3-b][1,4]oxazepin-12(13H)-yl)benzonitrile] | 0.38 µM | 1.15 µM |  | 0.46 µM | 0.08 µM | 2.53 µM
CN(C)c1ccc(N2Cc3ccccc3OC3=C2C(=O)c2cccc(O)c2C3=O)cn1 [Compound 103] | 1.4 µM | 1.74 µM |  | 1.41 µM |  | 1.8 µM
O=C1C2=C(Oc3ccccc3CN2c2ccc(N3CCOCC3)nc2)C(=O)c2c(O)cccc21 [Compound 104] | 1.02 µM | 1.82 µM |  | 1.23 µM |  | 1.6 µM
O=C1C2=C(Oc3ccccc3CN2c2cccnc2)C(=O)c2c(O)cccc21 [Compound 76] | 1.8 µM | 2 µM |  | 1.86 µM |  | 2.3 µM
NS(=O)(=O)c1ccc(N2Cc3ccccc3OC3=C2C(=O)c2ccccc2C3=O)cc1 [Compound 19] |  | 7.9 µM | 1 µM |  | 1.39 µM | 8.36 µM
CN1CCN(c2ccc(N3Cc4ccccc4OC4=C3C(=O)c3cccc(O)c3C4=O)cn2)CC1 [Compound 106] | 0.74 µM |  |  | 0.71 µM |  | 
CN(C)CCNc1ccc(N2Cc3ccccc3OC3=C2C(=O)c2ccccc2C3=O)cn1 [Compound 73] | 1.64 µM | 2.27 µM |  | 1.7 µM |  | 2.7 µM
CN(CCO)c1ccc(N2Cc3ccccc3OC3=C2C(=O)c2ccccc2C3=O)cn1 [Compound 49] | 2.63 µM |  | 1.22 µM | 3.43 µM |  | 
NC(=O)c1ccc(N2Cc3cc(Cl)ccc3OC3=C2C(=O)c2c(O)ccc(O)c2C3=O)cc1 [Compound 41] | 0.98 µM | 1.53 µM |  | 0.39 µM | 0.22 µM | 3.74 µM
COc1cccc2c1OC1=C(C(=O)c3c(O)ccc(O)c3C1=O)N(c1ccc(C#N)cc1)C2 [Compound 26] | 0.39 µM | 3.17 µM |  | 0.47 µM | 0.13 µM | 7.35 µM
CN(C)CCNc1ccc(N2Cc3ccccc3OC3=C2C(=O)c2c(O)ccc(O)c2C3=O)cn1 [Compound 97, 12-(6-((2-(dimethylamino)ethyl)amino)pyridin-3-yl)-7,10-dihydroxy-12,13-dihydrobenzo[f]naphtho[2,3-b][1,4]oxazepine-6,11-dione] | 0.35 µM | 0.79 µM |  | 0.42 µM | 0.44 µM | 0.68 µM
CN1CCN(c2ccc(N3Cc4ccccc4OC4=C3C(=O)c3ccccc3C4=O)cn2)CC1 [Compound 100, 12-(6-(4-methylpiperazin-1-yl)pyridin-3-yl)-12,13-dihydrobenzo[f]naphtho [2,3-b][1,4]oxazepine-6,11-dione] | 1.63 µM | 1.95 µM |  | 1.8 µM |  | 3.4 µM
COc1ccc(O)c2c1C(=O)C1=C(Oc3ccccc3CN1c1ccccc1)C2=O [Compound 84] | 1.18 µM | 3.98 µM | 3.71 µM |  |  | 
COc1ccc2c(c1)OC1=C(C(=O)c3c(O)ccc(O)c3C1=O)N(C(=O)c1ccc(C#N)cc1)C2 [Compound 13] | 0.78 µM | 2.75 µM |  | 0.46 µM | 0.32 µM | 3.72 µM

From patent EP4177246A1, “FUSED OXAZEPINES AS INHIBITORS OF PEROXIREDOXINS” (Centro Atlántico del Medicamento, SA, priority 2021, dated 2023)
